# Data from article PMC5986738, “Thiazole Amides, A Novel Class of Algaecides against Freshwater Harmful Algae” (Scientific Reports, 2018).
# Legend:
# S. obliqnus = test: Algicidal activity (growth inhibition, microplate, absorbance 650 nm) against S. obliqnus; type: cell-based; details: 96-hour IC50, mean ± SD
# Protocol: (§1) According to the method established by Schrader et al.[42], algicidal activity of alkaloid (1) and its amide analogues (7–32), as well as their hydrochloric salts (7S–27S), was evaluated against three typical […] algae, S. obliqnus, M. aeruginosa, and C. Pyrenoidosa at different concentrations. After three algae species were inoculated, the variation of algae density over 7 days were recorded continuously. […] The wavelength at 650 nm was determined as ideal incident wavelength for the measurement of algae density. Three […] algae S. obliqnus, M. aeruginosa, and C. pyrenoidosa were offered by Freshwater algae culture collection of the institute of Hydrobiology (FACHB-collection). Each culture for three species was maintained separately in continuous, steady-state growth microplates, which were placed in a growth chamber held at 28 ± 1 °C and illuminated continuously under fluorescent lights at a photon flux density of […]. Absorbance values of each wells were measured by a Packard model Spectra Count microplate photometer.
# (§2) Alkaloid (1) and its analogues (7–32), as well as their hydrochloric salts (7S–27S), were dissolved separately in DMSO to provide stock solution concentrations. Initially, each stock solution was aseptically pipetted into the bottom of separate wells (20 μL per well) in a 96-well microplate and the final test concentrations for each sample were 0, 0.78, 1.56, 3.12, 6.25, 12.5, and 25 μg/mL. Wells of control samples contained only unialgal culture. The solution of CuSO4 and Diuron at the same concentration were chose as the reference sample. Each experiment was performed at least three times. Through measuring the area values under the individual growth curves, the inhibitory rate (%) for the individual tested concentration was calculated according to the following equation (1):1 Ii=(Ac−Ai)/[…]×100% • Ii: inhibitory rate of biomass growth by toxicant concentration i (%) • Ac: average area under the growth curve by control sample • Ai: average area under the growth curve by test concentration i
# (§3) Mean values of 96-hour IC50 were determined for each group of plates, and standard deviation were calculated and reported as the mean ± SD.
# (§4) The IC50 values of all compounds against three freshwater algae species were calculated using SPSS v19.0, and the algicidal activities of alkaloid (1) and its amide analogues (7–32), as well as the corresponding hydrochloric salts (7S–27S) are listed in Table 1 and 2, respectively.
# M. aeruginosa = test: Algicidal activity (growth inhibition, microplate, absorbance 650 nm) against M. aeruginosa; type: cell-based; details: for IC50 value M. aeruginosa / IC50: 96-hour IC50, mean ± SD; for growth inhibitory ratio: 3.13 μg/mL; for IC50: Microcystis aeruginosa, read-out: IC50 value M. aeruginosa
# Protocol: as §1, §2, §3, §4
# Currently, M. aeruginosa appears to be the most harmful algae existing in the freshwater bodies in the developing countries. To investigate growth inhibitory potential of this class of thiazole amides on M. aeruginosa, thiazole amide (10) and its hydrochloric acid salt (10S) were subject to further survey for the optimal inhibition time and concentration (Figs 3 and 4). […] The variation of growth inhibitory ratios of compounds (10) and (10S) against M. aeruginosa at the lowest complete inhibition concentration is illustrated in Fig. 4. As observed, for administration of thiazole amide (10), the growth inhibitory ratios after 96 and 120 hours increase gradually to 79% and 92%, respectively. Under the same experimental conditions, growth inhibitory ratios for the salt (10S) are 82% and 88%, respectively.
# C. pyrenoidosa = test: Algicidal activity (growth inhibition, microplate, absorbance 650 nm) against C. pyrenoidosa; type: cell-based, Chlorella pyrenoidosa; details: 96-hour IC50, mean ± SD; for IC50: Auxenochlorella pyrenoidosa, read-out: IC50 value C. pyrenoidosa
# Protocol: as §1, §2, §3, §4
Compound,IC50 value S. obliqnus (S. obliqnus) [µg/mL],IC50 value M. aeruginosa (M. aeruginosa) [µg/mL],IC50 value C. pyrenoidosa (C. pyrenoidosa) [µg/mL],growth inhibitory ratio (M. aeruginosa; after 96 hours) [%],growth inhibitory ratio (M. aeruginosa; after 120 hours) [%],IC50 (M. aeruginosa) [µg/mL],IC50 (C. pyrenoidosa) [µg/mL]
C[C@H](N)c1nc(C(=O)Nc2ccccc2)cs1.Cl [7S],0.14 ± 0.06,1.33 ± 0.16,2.54 ± 0.28,–,–,–,–
C[C@H](N)c1nc(C(=O)Nc2ccc(F)cc2)cs1.Cl [8S],1.14 ± 0.09,3.00 ± 0.12,2.69 ± 0.23,–,–,–,–
C[C@H](N)c1nc(C(=O)Nc2ccc(Cl)cc2)cs1.Cl [9S],4.00 ± 0.34,1.18 ± 0.21,0.40 ± 0.10,–,–,–,–
C[C@H](N)c1nc(C(=O)Nc2ccc(Br)cc2)cs1.Cl [10S],–,–,–,82,88,–,–
Cc1ccc(NC(=O)c2csc([C@H](C)N)n2)cc1.Cl [11S],6.83 ± 0.45,4.34 ± 0.36,3.37 ± 0.28,–,–,–,–
COc1ccc(NC(=O)c2csc([C@H](C)N)n2)cc1.Cl [12S],3.16 ± 0.29,1.40 ± 0.18,2.88 ± 0.39,–,–,–,–
C[C@H](N)c1nc(C(=O)Nc2cccc(Cl)c2)cs1.Cl [14S],2.01 ± 0.19,0.79 ± 0.08,0.66 ± 0.06,–,–,–,–
C[C@H](N)c1nc(C(=O)Nc2cccc(Br)c2)cs1.Cl [15S],1.59 ± 0.16,2.96 ± 0.26,2.75 ± 0.30,–,–,–,–
Cc1cccc(NC(=O)c2csc([C@H](C)N)n2)c1.Cl [16S],4.07 ± 0.39,1.95 ± 028,1.82 ± 0.14,–,–,–,–
C[C@H](N)c1nc(C(=O)Nc2cccc(C(F)(F)F)c2)cs1.Cl [17S],1.59 ± 0.23,3.09 ± 0.42,2.39 ± 0.24,–,–,–,–
C[C@H](N)c1nc(C(=O)Nc2ccccc2F)cs1.Cl [18S],1.12 ± 0.09,0.26 ± 0.01,0.27 ± 0.09,–,–,–,–
C[C@H](N)c1nc(C(=O)Nc2ccccc2Cl)cs1.Cl [19S],0.14 ± 0.02,3.07 ± 0.34,2.50 ± 0.16,–,–,–,–
C[C@H](N)c1nc(C(=O)Nc2ccccc2Br)cs1.Cl [20S],0.68 ± 0.06,1.23 ± 0.12,0.41 ± 0.04,–,–,–,–
Cc1ccccc1NC(=O)c1csc([C@H](C)N)n1.Cl [21S],13.63 ± 1.20,4.93 ± 045,5.15 ± 0.56,–,–,–,–
COc1ccccc1NC(=O)c1csc([C@H](C)N)n1.Cl [22S],1.74 ± 0.24,1.12 ± 0.16,0.35 ± 0.02,–,–,–,–
C[C@H](N)c1nc(C(=O)Nc2ccc(OC(F)(F)F)cc2)cs1.Cl [23S],4.68 ± 0.38,4.45 ± 0.58,0.66 ± 0.03,–,–,–,–
C[C@H](N)c1nc(C(=O)Nc2ccc(Cl)c(Cl)c2)cs1.Cl [24S],5.59 ± 0.78,5.18 ± 0.66,3.42 ± 0.32,–,–,–,–
Cc1cc(NC(=O)c2csc([C@H](C)N)n2)ccc1F.Cl [25S],16.62 ± 1.48,1.79 ± 0.22,1.59 ± 0.19,–,–,–,–
CC(N)c1nc(C(=O)Nc2cccc(Br)c2)cs1 (centres unmarked) [compound 15],–,4.79 ± 0.15,5.77 ± 0.11,–,–,–,–
C[C@H](N)c1nc(C(=O)Nc2ccccc2Cl)cs1 [compound 19],–,–,–,–,–,12.2 ± 1.16,8.16 ± 1.34
Cc1ccccc1NC(=O)c1csc([C@H](C)N)n1 [compound 21],–,–,–,–,–,10.1 ± 1.71,26.1 ± 3.25
